Measurements taken from paper PMC5869871 (Investigational New Drugs, 2017).
Read-outs that look alike come from different tables or passages of the source. Marks after values point to notes of the source that are not given here.

What was measured:
[1] = in vivo; for AUC0-last / AUC(0-inf) / Cmax / Tmax / t1/2: human, 30 mg
Procedure: (§1) Study 2 was a phase 1, open-label study in patients with advanced solid tumors or relapsed/refractory lymphomas.
(§2) Patients also received oral solution doses of 200 mg itraconazole QD on Days 5 through 13. […] Itraconazole was administered in the study center on Days 5, and 10 through 13 with the remaining doses being administered at home by the patients.
(§3) [1, 2] […] The quantitation range for the M1 assay was 2.00 to 1000 ng/mL, the assay precision ranged from 3.0 to 4.1% and the mean accuracy ranged from −1.5 to 0.3%. The quantitation range for the M2 assay was 2.00 to 1000 ng/mL, the assay precision ranged from 3.0 to 4.3% and the mean accuracy ranged from −1.1 to 0.7%.
(§4) Pharmacokinetic parameters were estimated where data permitted using non-compartmental analysis with Phoenix™ WinNonlin® Version 6.3 (Pharsight Corporation, Mountain View, CA, USA). […] The AUC parameters were estimated using the linear-log trapezoidal rule.
(§5) The analyses utilized a fixed-sequence repeated measures mixed-effects linear model. All inferences were based on least squares (LS) means estimated from this model. All statistical analyses were conducted using SAS version 9.2 (SAS Institute, NC, USA).

[2] = human, in vivo; for mean t1/2 / median Tmax: 50 mg
Procedure: (§6) Study 1 was a phase 1, open-label, fixed sequence, 2-cycle study in patients with advanced solid tumors or lymphomas.
(§7) In Cycle 2, patients also received single daily doses of either esomeprazole (40 mg QD delayed-release capsules) or rifampin (600 mg once daily [QD]) on Days 1 through 10.
(§8) Patients attended the study center on the day prior to the first dose (Day −1) for baseline assessments and returned on each of Days 1 to 4 of Cycle 1 and Days 8 to 11 of Cycle 2 for study assessments.
(§9) The quantitation range for the M1 assay was 2.00 to 1000 ng/mL, the assay precision ranged from 3.0 to 4.1% and the mean accuracy ranged from −1.5 to 0.3%. The quantitation range for the M2 assay was 2.00 to 1000 ng/mL, the assay precision ranged from 3.0 to 4.3% and the mean accuracy ranged from −1.1 to 0.7%. The same assays were used in Study 2, with similar values for assay precision and accuracy.
as §4
(§10) The analyses utilized a fixed-sequence repeated measures mixed-effects linear model. All inferences were based on least squares (LS) means estimated from this model. All statistical analyses were conducted using SAS version 9.2 (SAS Institute, NC, USA). The sample size for both studies was based on the expected 90% CIs for the ratio of geometric mean AUCs. For Study 1, the within-patient CV was estimated to be 39.4% based on prior clinical PK data in cancer patients. […] For Study 2, the within-patient CV was estimated to be 31% based on more recent clinical PK data and a sample size of 16 patients was expected to provide 90% CIs of 0.83X, 1.21X.

[3] = Study 2 safety assessment (adverse events, laboratory results, vital signs, ECG); type: in vivo, human
Procedure: as §1, §2

[4] = Study 1 safety assessment (adverse events, laboratory results, vital signs, ECG); type: in vivo, human
Procedure: Safety was evaluated based on the incidence of adverse events, and changes from baseline in vital signs, ECGs, weight and clinical laboratory results and ECOG status.

[5] = cited from earlier work
[6] = cited from earlier work; remark: listed apart in the source
[7] = Study 1: single-dose plasma pharmacokinetics of alisertib, M1 and M2 with and without esomeprazole or rifampin; conditions: for t1/2 / half-life: arithmetic mean (SD); for AUC(0-inf): AUC0-inf; for AUC(0-t): AUC0-last
Procedure: as §6, §7, §8, §9, §4, §10

[8] = tested on: CYP3A4; design: method as in Takeda data on file; conditions: ref Takeda data on file; cited from earlier work
[9] = Study 2: single-dose plasma pharmacokinetics of alisertib, M1 and M2 with and without itraconazole; conditions: for t1/2 / Tmax / half-life: single 30 mg alisertib ECT; for t1/2 / half-life: arithmetic mean (SD); for Tmax: median (minimum, maximum); for half-life: t1/2, Study 2
Procedure: as §1, §2, §3, §4, §5

[10] = human, plasma, oral, 50 mg, Study 1 esomeprazole arm, single 50 mg alisertib ECT, absence of esomeprazole, geometric mean (%CV)
[11] = human, plasma, oral, 50 mg, Study 1 rifampin arm, single 50 mg alisertib ECT, absence of rifampin, geometric mean (%CV)
[12] = human, plasma, oral, Study 1 esomeprazole arm, single 50 mg alisertib ECT, presence of esomeprazole 40 mg QD, geometric mean (%CV)
[13] = human, plasma, oral, Study 1 rifampin arm, single 50 mg alisertib ECT, presence of rifampin 600 mg QD, geometric mean (%CV)
[14] = Study 2, absence of itraconazole

## COc1cc(Nc2ncc3c(n2)-c2ccc(Cl)cc2C(c2c(F)cccc2OC)=NC3)ccc1C(=O)O[C@@H]1O[C@H](C(=O)O)[C@@H](O)[C@H](O)[C@H]1O [M1, alisertib acylglurcuronide]
[1]
  AUC0-last: 4962 (164%) nM*h
  AUC(0-inf): 5758 (174%)^d nM*h
  Cmax: 287 nM
  Tmax: 3.1 (1, 23) h
  t1/2: 23.0 (11.2)^h
[2]
  mean t1/2: 15 to 18 h
  median Tmax: 4 h

## COc1cc(Nc2ncc3c(n2)-c2ccc(Cl)cc2C(c2c(O)cccc2F)=NC3)ccc1C(=O)O [M2, O-desmethyl alisertib]
[1]
  AUC0-last: 4977 (58%) nM*h
  AUC(0-inf): 4926 (41%)^i nM*h
  Cmax: 100 nM
  Tmax: 9.4 (3.0, 48) h
  t1/2: 28 (9.2)^i h
  systemic exposure metabolite/parent ratio following multiple dose itraconazole: decreased
[2]
  mean t1/2: 19.1 to 22 h
  median Tmax: 10 h
[2]; 600 mg
  change in mean AUC0-inf in the presence of rifampin: increased
  change in mean t1/2 in the presence of rifampin: decreased

## COc1cc(Nc2ncc3c(n2)-c2ccc(Cl)cc2C(c2c(F)cccc2OC)=NC3)ccc1C(=O)O [Alisertib]
[3]
  leukocytes and neutrophils over the course of the study: decreases were observed
  vital signs or ECG findings: no notable trends
[4]; Study 1, none deemed related to study treatment
  patients who died during the study: Four
[4]; human, in vivo
  Alopecia, treatment-related: 17 (31) n (%)
  Anaemia, treatment-related: 10 (18) n (%)
  Decreased appetite, treatment-related: 8 (15) n (%)
  Dehydration, treatment-related: 6 (11) n (%)
  Diarrhea, treatment-related: 18 (33) n (%)
  Fatigue, treatment-related: 14 (25) n (%)
  Leukopenia, treatment-related: 7 (13) n (%)
  Nausea, treatment-related: 10 (18) n (%)
  Neutropenia, treatment-related: 17 (31) n (%)
  Stomatitis, treatment-related: 14 (25) n (%)
  Thrombocytopenia, treatment-related: 7 (13) n (%)
  Vomiting, treatment-related: 8 (15) n (%)
  patients with at least 1 adverse event: 52 (95%) patients
  treatment-related serious adverse events nausea and vomiting (each): 2 patients
[4]; in vivo
  leukocytes and neutrophils over the course of the study: decreases were observed
  patients with other serious adverse events considered treatment related: Five
  vital signs or ECG findings: no notable trends
[5]; at acidic pH
  aqueous solubility: low
[5]; free acid
  pKa: 4.53
[6]
  apparent oral clearance: 4.25 L/h
[7]; Study 1, single 50 mg alisertib, esomeprazole 40 mg QD
  increase in alisertib AUCinf (systemic exposure) by esomeprazole: 28%
[7]; Study 1, single 50 mg alisertib, rifampin 600 mg QD
  decrease in alisertib AUCinf (AUC) by rifampin: approximately 50%
[7]; Study 1, single 50 mg alisertib, rifampin 600 mg QD versus alone, metabolites not statistically compared
  change in Cmax in the presence of rifampin: did not alter
[7]; Study 1 esomeprazole arm, single 50 mg alisertib ECT, absence of esomeprazole
  t1/2: 16.1 (5.4)^b h
[7]; Study 1 esomeprazole arm, single 50 mg alisertib ECT, presence of esomeprazole 40 mg QD, median (minimum, maximum)
  Tmax: 3 (1, 8) h
[7]; Study 1 rifampin arm, single 50 mg alisertib ECT, absence of rifampin
  t1/2: 16.3 (6.6)^h
[7]; Study 1 rifampin arm, single 50 mg alisertib ECT, absence of rifampin, plasma, geometric mean (%CV)
  AUC0-last: 17,936 (43%) nM*h
[7]; Study 1 rifampin arm, single 50 mg alisertib ECT, presence of rifampin 600 mg QD
  t1/2: 8.2 (5.5)^i h
[7]; Study 1 rifampin arm, single 50 mg alisertib ECT, presence of rifampin 600 mg QD, median (minimum, maximum)
  Tmax: 2.1 (1, 6) h
[7]; [10]
  AUC(0-inf): 20.3 µM·h
  AUC(0-t): 19.6 µM·h
  Cmax: 1500 nM
[7]; [11]
  AUC(0-inf): 16.2 µM·h
  Cmax: 1450 nM
[7]; human, plasma, oral, 50 mg, Tmax, Study 1 esomeprazole arm, single 50 mg alisertib ECT, absence of esomeprazole, median (minimum, maximum)
  Tmax: 4 h
[7]; human, plasma, oral, 50 mg, Tmax, Study 1 rifampin arm, single 50 mg alisertib ECT, absence of rifampin, median (minimum, maximum)
  Tmax: 4 h
[7]; human, plasma, oral, 50 mg, median Tmax, Study 1, both treatment arms, 50 mg alisertib administered alone
  Tmax: 3 to 4 h
[7]; human, plasma, oral, 50 mg, t1/2, Study 1 esomeprazole arm, single 50 mg alisertib ECT, absence of esomeprazole
  half-life: ~16 h
[7]; human, plasma, oral, 50 mg, t1/2, Study 1 rifampin arm, single 50 mg alisertib ECT, absence of rifampin
  half-life: ~16 h
[7]; [12]
  AUC(0-inf): 25.9 µM·h
  AUC(0-t): 24.5 µM·h
  Cmax: 1720 nM
[7]; [13]
  AUC(0-inf): 8.65 µM·h
  AUC(0-t): 9.06 µM·h
[7]; human, plasma, oral, Tmax, Study 1 rifampin arm, single 50 mg alisertib ECT, presence of rifampin 600 mg QD, median (minimum, maximum)
  Tmax: ~2 h
[7]; human, plasma, oral, t1/2, Study 1 esomeprazole arm, single 50 mg alisertib ECT, presence of esomeprazole 40 mg QD
  half-life: ~16 h
[7]; human, plasma, oral, t1/2, Study 1 rifampin arm, single 50 mg alisertib ECT, presence of rifampin 600 mg QD
  half-life: ~8 h
[8]
  CYP3A4-mediated metabolism as share of alisertib total clearance (estimated): approximately 60%
[9]; [14]
  t1/2: 22.6 (10.3)^k h
  Tmax: 2.9 (1.1, 10) h
[9]; Study 2, presence of itraconazole 200 mg QD
  t1/2: 25.4 (9.2)^l h
[9]; Study 2, single 30 mg alisertib, itraconazole 200 mg QD versus alone
  change in Cmax in the presence of itraconazole: did not alter
[9]; human, plasma, oral, 30 mg
  AUC(0-inf): 14.8 µM·h
  AUC(0-t): 13.5 µM·h
  Cmax: 986 nM
[9]; human, plasma, oral, 30 mg, Tmax, Study 2, absence of itraconazole
  Tmax: ~3 h
[9]; human, plasma, oral, 30 mg, absence of itraconazole
  half-life: ~23 h
[9]; human, plasma, oral, Tmax, Study 2, presence of itraconazole 200 mg QD
  Tmax: 2.9 h
[9]; human, plasma, oral, presence of itraconazole 200 mg QD
  half-life: ~25 h
